The first series in a line: method code SF, from DOI: 10.1515/znb-1972-0211, PMID: 4401834. The note with it: pH 7.0.
In turn, `COC(=O)/C(C#N)=N\Nc1cc(Cl)c(Cl)cc1Cl` registered a logD of 5.15.

The nature of another series: method code SF-AS, from DOI: 10.1515/znb-1972-0211, PMID: 4401834. The conditions noted are these: pH 7.0.
Regarding `CCOC(=O)/C(C#N)=N\Nc1ccc(Cl)c(C(F)(F)F)c1`, the logD is 4.86.

Compound `CC(=O)C(C#N)=NNc1ccc(Cl)cc1` returned a logD of 4.13.

In the case of `CC(=O)C(C#N)=NNc1ccc(SC(F)(F)F)cc1`, the logD stood at 5.04.

`CC(C)(C)C(=O)C(C#N)=NNc1ccc(Cl)cc1C(F)(F)F` registered a logD of 5.67.

`CCS(=O)(=O)c1ccc(C(F)(F)F)cc1NN=C(C#N)C(C)=O` had a logD of 4.22.

The compound `COC(=O)C(C#N)=NNc1ccccc1C(F)(F)F` came in with a logD of 3.72.

Regarding `COC(=O)C(C#N)=NNc1cc(C(F)(F)F)ccc1Cl`, the pH-dependent lipophilicity (logD) was 4.42.

`CC(C)(C)C(=O)C(C#N)=NNc1cccc(Cl)c1` yielded a pH-dependent lipophilicity (logD) of 4.62.

Consider `COC(=O)C(C#N)=NNc1ccc(S(=O)(=O)C(F)(F)F)cc1`, for which the logD was 4.22.

The compound `CCOC(=O)C(C#N)=NNc1cc(C(F)(F)F)ccc1Cl` yielded a pH-dependent lipophilicity (logD) of 4.45.

For `COC(=O)C(C#N)=NNc1cc(C#N)ccc1C#N`, the pH-dependent lipophilicity (logD) is 2.81.

With `COC(=O)C(C#N)=NNc1ccc(C(F)(F)F)cc1`, the logD was 3.79.

`CC(=O)C(C#N)=NNc1cc(Cl)cc(Cl)c1` gave a logD of 4.68.

With `COC(=O)C(C#N)=NNc1ccccc1`, the log distribution coefficient (logD) was 2.59.

Compound `Cc1cc(Cl)ccc1NN=C(C#N)C(=O)C(C)(C)C` gave a pH-dependent lipophilicity (logD) of 4.31.

Compound `COC(=O)/C(C#N)=N\Nc1cccc(Cl)c1` registered a pH-dependent lipophilicity (logD) of 3.56.

Compound `COC(=O)/C(C#N)=N\Nc1cc(Cl)c(Cl)c(Cl)c1` showed a logD of 5.22.

`CCOC(=O)C(C#N)=NNc1ccccc1Cl` registered a logD of 3.38.

Compound `COC(=O)/C(C#N)=N\Nc1ccc(SC(F)(F)F)cc1` gave a pH-dependent lipophilicity (logD) of 4.27.

In turn, `CC(C)(C)C(=O)C(C#N)=NNc1cc(Cl)c(Cl)cc1Cl` gave a pH-dependent lipophilicity (logD) of 5.86.

`CC(=O)C(C#N)=NNc1ccc2c(c1)OC(F)(F)C(F)(F)O2` registered a pH-dependent lipophilicity (logD) of 5.31.

With `COC(=O)/C(C#N)=N\Nc1cc(Cl)cc(Cl)c1`, the log distribution coefficient (logD) was 4.5.

`COC(=O)C(C#N)=NNc1cccc(C(F)(F)F)c1` gave a logD of 3.78.

On to `COC(=O)C(C#N)=NNc1ccc2c(c1)OC(F)(F)C(F)(F)O2`, for which the logD came out at 4.86.

`CC(=O)C(C#N)=NNc1ccc(Cl)c(Cl)c1` had a logD of 4.56.

`CCOC(=O)/C(C#N)=N\Nc1cc(Cl)cc(Cl)c1` yielded a pH-dependent lipophilicity (logD) of 3.82.

For the compound `CCOC(=O)/C(C#N)=N\Nc1cc(Cl)c(Cl)cc1Cl`, the logD worked out at 5.21.

In turn, `CC(=O)C(C#N)=NNc1cccc(Cl)c1` had a log distribution coefficient (logD) of 3.91.

In the case of `COC(=O)/C(C#N)=N\Nc1cc(C(F)(F)F)cc(C(F)(F)F)c1`, the logD was determined as 5.02.

For `CCOC(=O)C(C#N)=NNc1cc(Cl)c(Cl)c(Cl)c1`, the logD was 5.03.

`CCOC(=O)/C(C#N)=N\Nc1cccc(Cl)c1` gave a logD of 3.94.

Take `CC(C)(C)C(=O)C(C#N)=NNc1ccc2c(c1)OC(F)(F)C(F)(F)O2`: the logD worked out at 4.96.

`CC(=O)C(C#N)=NNc1ccccc1Cl` returned a logD of 4.01.

On to `CC(C)(C)C(=O)C(C#N)=NNc1cc(C(F)(F)F)cc(C(F)(F)F)c1`, for which the logD was 5.44.

As for `CC(=O)C(C#N)=NNc1ccc(Cl)cc1C`, the logD came to 4.28.

Usually logD stands for lipophilicity at a set pH, counting ionised and neutral species.

The values above are taken from the SangsterLogP compilation.
